Test system: dendritic cells
Assay: Genome-wide transcriptional profiling of dendritic cells by RNA-seq
Type: cell-based, murine
Conditions: 100 μM LPA
Procedure: RNA was obtained from LPA-treated bone marrow-derived DCs (BMDCs) and RNA sequencing was performed. The RNA-sequencing data and Ingenuity Pathway Analyses (IPA) was performed on the RNA from LPA-treated bone marrow-derived DCs (BMDCs).

Substance: lysophosphatidic acid [LPA]
- number of genes demonstrating severe deregulation: ~4,000 genes

From patent US20220273752A1, “MODULATION OF DENDRITIC CELL FUNCTION BY THE PHOSPHOLIPID MESSENGER LPA” (Cornell University, priority 2019, published 2022)
